# Experimental data reported in US6495663B1, “Method and composition for enhancing transport across biological membranes” (The Board of Trustees of the Leland Stanford Junior …, priority 1997, dated 2002).
# “Also recorded” adds a separate entry of the source. No end group written: not given here. *: point of attachment. FITC = O=C1OC2(c3ccc(O)cc3Oc3cc(O)ccc32)c2ccc(NC(=S)*)cc21; Ahx = NCCCCCC(=O)O
# How the values were obtained:
# [1] = tested on: gamma-IFN secretion by murine T cell line (clone 11.3); experiment: Inhibition of gamma-IFN production by conjugates; format: cell-based
# Experimental: 3. Gamma-IFN Assay. The amount of gamma interferon secreted by a murine T cell line (clone 11.3) was measured by incubating 10^5 T cells with varying amounts of antigen (peptide consisting of residues 110-121 of sperm whale myoglobin) and histocompatible spleen cells from DBA/2 mice (H-2d, 5×10^5), which act as antigen-presenting cells (APCs), in 96 well plates. After incubation for 24 hours at 37° C., 100 μL of the supernatants were transferred to microtiter plates coated with commercially available anti-gamma-IFN monoclonal antibodies (Mab) (Pharmingen, San Diego, Calif.). After incubation for an hour at room temperature, the plates were washed with PBS containing 1% fetal calf serum and 0.1% Tween®20, after which a second, biotinylated gamma-IFN Mab was added. After a second hour of incubation, the plates were washed as before, and europium (Eu)-streptavidin (Delphia-Pharmacia) was added. Again, after an hour of incubation, an acidic buffer was added to release Eu, which was measured by time-resolved fluorometry on a Delphia plate reader.
# The ability of PNA-polyarginine conjugates to inhibit secretion of gamma-IFN was assayed by adding various concentrations of the above gamma-IFN conjugates with suboptimal doses of peptide antigen (0.5 μM), to a mixture of clone 11.3 T cells and histocompatible spleen cells.
# After 24 hours, aliquots of the cultured supernatants were taken, and the amount of gamma-IFN was measured using the fluorescent binding assay described in section 3 above.
# Jurkat cells [2] = experiment: Fluorescence assay of cellular uptake of peptide-fluorescein conjugates (FACS); format: cell-based, human; settings: FIGS. 1A-1C
# [3] = cited from earlier work
# Jurkat cells [4] = experiment: Confocal cell microscopy of conjugate uptake; format: cell-based, human; settings: 6.25 μM conjugate, 37° C., 10 minutes
# Experimental: Cells incubated with fluorescent polyarginine peptides were prepared as described above for binding assays and analyzed at the Cell Sciences Imaging Facility (Stanford University, Stanford, Calif.) using a scanning, single beam laser confocal microscope, with an excitation wavelength of 488 nm (argon-ion laser) and an emission band-width of 510-550 using a band-pass filter. Conjugates (6.25 μM) containing tat(49-57), R7, or r7 coupled to fluorescein were incubated with Jurkat cells for 37° C. for 10 minutes. FIGS. 2A-2F show results for emitted fluorescence (FIGS. 2A-2C) and transmitted light (2D—2F) for tat(49-57) (FIGS. 2A and […]), R7 (FIGS. 2B and 2E), and r7 (FIGS. 2C and 2F).
# Jurkat cells [5] = experiment: Kinetics of uptake (Michaelis-Menten, Lineweaver-Burk); format: cell-based, human; settings: for Km / VMAX: fluorescent conjugates, Jurkat cells, 0.5, 1, 2 and 4 minutes at 4° C., Lineweaver-Burk
# Experimental: Peptides were incubated with cells for 0.5, 1, 2, and 4 minutes at 4° C. in triplicate, in 50 μL of PBS/FCS in 96-well plates. At the end of incubation, the reaction was quenched by diluting the samples in 5 mL of PBS/FCS, centrifuging and washing once with PBS/FCS, trypsin/EDTA, and finally again with PBS/FCS, and taking up the pellets in PBS/FCS containing propidium iodide for analysis on a FACScan. FACS data were fitted to the Line-weaver-Burk equation for Michaelis-Menten kinetics.
# [6] = target: T1, complex consisting of RAF-1 and p21 Ras (Homo sapiens, UniProt P04049); experiment: Disruption of RAF-1/p21 Ras complex in peptide-treated T-cells; format: cell-based; settings: same peptide treatment
# T1 construct: T-cells which had been isolated by standard methods; endogenous in cells; host or cells: T-cells isolated by standard methods
# RAF-1 kinase = target: T2, RAF-1 kinase (Homo sapiens, UniProt P04049); experiment: RAF-kinase activity in anti-RAF-1 precipitates of T cells; format: cell-based; settings: anti-RAF-1 precipitates of exposed T cells
# T2 construct: Anti-RAF-1 precipitates of T cells; endogenous in cells; host or cells: T cells
# Text: In a second study, the V7 peptide portion of the V7-poly-arginine conjugate was phosphorylated in vitro using protein kinase C.
# [7] = target: T3, RAF-1 in V7 immunocomplex (Homo sapiens, UniProt P04049); experiment: Anti-V7 immunoprecipitation from peptide-treated T-cells; format: cell-based
# T3 construct: T-cells which had been isolated by standard methods; endogenous in cells; host or cells: T-cells isolated by standard methods
# Experimental: The conjugate was added (final concentration ≈10 μM) to T-cells which had been isolated by standard methods, and was incubated at 37° C. for several hours to overnight. Cells were lysed using detergent (1% Triton X-100). DNA was removed, and the soluble (protein-containing) fraction was subjected to immunoprecipitation with an anti-V7 murine monoclonal antibody in combination with goat anti-mouse IgG. RAF-1 is a kinase that associates with, and is inactivated by association with, V7.
# [8] = Biological half-life / proteolysis by serum enzymes in uptake assay; format: in vitro ADME; settings: serum-containing assay
# E. coli strain HB101 = experiment: Transport into bacterial cells (gram-negative); format: cell-based; settings: 30 minutes at 37° C., 3 to 50 μM conjugate
# Experimental: Gram-negative bacteria (E. coli strain HB101) and gram-positive bacteria (Strep. bovis) were grown in appropriate media in logarithmic phase. Cell cultures (4×10^8 per mL) were incubated for 30 minutes at 37° C. with varying concentrations of fluorescent conjugates containing linear polymers of L-arginine (R4 through R9), D-arginine (r4 through r9), or L-lysine (K9) at conjugate concentrations of 3 to 50 μM. The cells were washed and taken up in PBS-containing propidium iodide (to distinguish dead cells) and analyzed by FACS and fluorescent microscopy. Results are shown in FIGS. 5A-5C as discussed above.
# cells = experiment: Length range studies: uptake of longer polyarginine conjugates (FACS, mean fluorescence of live cells); format: cell-based
# Experimental: To examine the effect of substantially longer polymers, a mixture of L-arginine polymers with an average molecular weight of 12,000 daltons (≈100 amino acids) was also tested (Example 5). However, to avoid precipitation problems, the level of serum in the assay had to be reduced for testing conjugates with the ≈12,000 MW polymer material. Cell uptake was analyzed by FACS as above, and the mean fluorescence of live cells was measured. Cytotoxicity of each conjugate was also measured.
# Suspension cells ([…]) were incubated for varying times, at 37° C., 23° C., or 4° C., with a range of concentrations of peptides or conjugates in PBS pH 7.2 containing 2% fetal calf serum (PBS/FCS) in 96 well plates. […] The pelleted cells were resuspended in PBS containing 2% FCS and 0.1% propidium iodide and analyzed on a FACScan (Becton Dickenson, Mountain View, Calif.). […]
# The following homopolymers of polyarginine were tested by the fluorescence assay in Example 2, with incubation at 37° C. for 15 minutes prior to cell pelleting: r9, R9, R15, R20, R25, and R30. […] The cells were analyzed by FACS, and the mean fluorescence of the live cells was measured. Cytotoxicity of each conjugate was also measured by calculating the percentage of cells that stained with propidium iodide, which is characteristic of cell death. […]
# albumin-specific CTLs = experiment: Dendritic cells exposed to conjugate and injected into mice: CTL response in blood; format: in vivo; settings: dendritic cells exposed to antigen, then injected into mice
# Experimental: In another experiment, histocompatible dendritic cells (a specific type of APC) were exposed to albumin-R7 conjugates and were then injected into mice. […] Control mice were given dendritic cells that had been exposed to unmodified albumin.
# cytotoxic T-lymphocytes = experiment: Transport of large protein antigen into APCs: stimulation of CTLs; format: cell-based; settings: 10 μM on B-cells (APCs)
# Experimental: The molar ratio of peptide conjugated to ovalbumin was quantified by amino acid analysis. The conjugate product was designated OV-R7. The conjugate was added (final concentration 10 μM) to B-cells, also referred to as antigen-presenting cells (APCs), which were isolated according to standard methods. The APCs were incubated with OV-R7, and then were added to a preparation of cytotoxic T-lymphocytes isolated by standard methods.
molecule,measurement,setting,value
"NH2-rrrrrrr-GTGTAGCGTT-COOH (all peptide nucleic acid (PNA); D-arginine heptamer attached at the N-terminus, further chemistry not fully specified) [antisense PNA-r7 conjugate]",reduction in IFN secretion,"[1]; 24 hours, peptide antigen 0.5 μM",over 70%
same,conjugate level effective to block γ-IFN secretion,[1]; FIG. 7,above 10 μM
"K9: nonamer of L-Lys residues, fluorescein conjugate ({FITC-Ahx}-KKKKKKKKK; also: fluorescein conjugate, place not given here)",cellular uptake (transport of fluorescein into cells),Jurkat cells [2],very little uptake
same,cellular uptake (transport of fluorescein into cells),Jurkat cells [2]; listed as poly-Lys nonamer,ineffective as a transporter
CC(=O)O[C@@]12CO[C@@H]1C[C@H](O)[C@@]1(C)C(=O)[C@H](O)C3=C(C)[C@@H](OC(=O)[C@H](O)[C@@H](NC(=O)OC(C)(C)C)c4ccccc4)C[C@@](O)([C@@H](OC(=O)c4ccccc4)[C@H]21)C3(C)C [taxotere],water solubility,[3],6 to 7 µg/mL
"Arg-Lys-Lys-Arg-Arg-Gln-Arg-Arg-Arg (RKKRRQRRR; also: fluorescein conjugate, place not given here) [tat 49-57, polypeptide comprising HIV tat residues 49-57, fluorescein conjugate, reference compound]",fluorescence of cytosol (confocal micrographs),Jurkat cells [4],only weak staining
same,Km,Jurkat cells [5],722 µM
same,VMAX,Jurkat cells [5],0.38 µM/s
V7 peptide: V7 cytoplasmic tail sequence KLSTLRSNT with 7 arginine residues attached to its C-terminus (KLSTLRSNTRRRRRRR),disruption of complex of RAF-1 and p21 Ras,[6],did not disrupt; also recorded: unable to disrupt
same,inhibition of RAF-kinase activity,RAF-1 kinase,not
same,binding to RAF-1,[7],can bind to RAF-1
same,RAF-1 co-precipitation with V7,"[7]; ≈10 μM on T-cells, 37° C., several hours to overnight",RAF-1 protein was eliminated from the V7 immuno-complex; also recorded: RAF-1 protein was eliminated from the V7 immunocomplex
"NH2-rrrrrrr-AACGCTACAC-COOH (PNA, D-arginine heptamer conjugate, chemistry not fully specified) [sense PNA-r7]",inhibition of gamma-IFN secretion,"[1]; 24 hours, peptide antigen 0.5 μM, equivalent molar amounts",no inhibition
H3N-rrrrrrrrr-COO^-,proteolytic degradation,[8],did not show evidence of proteolytic degradation
same,uptake levels by E. coli HB 101 cells,E. coli strain HB101,much higher uptake levels
same,fluorescence of cytosol (confocal micrographs),Jurkat cells [4],brightly fluorescent
same,rate of entering cells,cells; FIG. 3 data,higher rates than polymers containing 15 or more contiguous arginines
same,uptake versus longer polymers,"cells; higher concentrations (>3 μM), 37° C., 15 minutes",significantly better than for the longer polymers
same,Km,Jurkat cells [5],7.21 µM
same,VMAX,Jurkat cells [5],0.39 µM/s
same,Km,Jurkat cells [5]; listed as nonamer of D-arginine,7 µM
same,apparent affinity (Km) relative to tat peptide,Jurkat cells [5]; greater apparent affinity than tat(49-57),approximately 100 fold
"unmodified ovalbumin: ovalbumin (45 kDa) protein antigen, not conjugated (protein, UniProt P01012 2-386, looked up) Ovalbumin: GSIGAASMEFCFDVFKELKVHHANENIFYCPIAIMSALAMVYLGAKDSTRTQINKVVRFDKLPGFGDSIEAQCGTSVNVHSSLRDILNQITKPNDVYSFSLASRLYAEERYPILPEYLQCVKELYRGGLEPINFQTAADQARELINSWVESQTNGIIRNVLQPSSVDSQTAMVLVNAIVFKGLWEKAFKDEDTQAMPFRVTEQESKPVQMMYQIGLFRVASMASEKMKILELPFASGTMSMLVLLPDEVSGLEQLESIINFEKLTEWTSSNVMEERKIKVYLPRMKMEEKYNLTSVLMAMGITDVFSSSANLSGISSAESLKISQAVHAAHAEINEAGREVVGSAEAGVDAASVSEEFRADHPFLFCIKHIATNAVLFFGRCVSP",albumin-specific CTL response in blood of mice,albumin-specific CTLs,did not exhibit the albumin-specific CTL response
same,stimulation of CTLs by APCs incubated with antigen,cytotoxic T-lymphocytes,failed to stimulate the CTLs
